According to PubChem BioAssay (NCI):
Values joined by “and” are separate entries in the source; they are usually repeats but may differ in a detail not shown here. Equal values may be shown once.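 Method: 48-hour compound exposure of cells in 96-well plates, five concentrations, linear interpolation of endpoints. Here, GI50 denotes the concentration required for 50% inhibition of growth. TGI marks complete inhibition of growth.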

What was measured:
Test in all cases: growth of human tumour cells (NCI), 48 h
UACC-62 melanoma = system: UACC-62 melanoma
NCI-H522 lung = system: NCI-H522 lung
CCRF-CEM leukemia = system: CCRF-CEM leukemia
MCF7 breast = system: MCF7 breast
SN12C renal = system: SN12C renal
NCI/ADR-RES ovarian = system: NCI/ADR-RES ovarian
SK-MEL-5 melanoma = system: SK-MEL-5 melanoma
OVCAR-4 ovarian = system: OVCAR-4 ovarian
TK-10 renal = system: TK-10 renal
DU-145 prostate = system: DU-145 prostate

SMILES | TGI (UACC-62 melanoma) | TGI (NCI-H522 lung) | TGI (CCRF-CEM leukemia) | TGI (MCF7 breast) | TGI (SN12C renal) | TGI (NCI/ADR-RES ovarian) | TGI (SK-MEL-5 melanoma) | TGI (OVCAR-4 ovarian) | TGI (TK-10 renal) | TGI (DU-145 prostate) | GI50 (UACC-62 melanoma) | GI50 (NCI-H522 lung) | GI50 (CCRF-CEM leukemia) | GI50 (MCF7 breast) | GI50 (SN12C renal) | GI50 (NCI/ADR-RES ovarian) | GI50 (SK-MEL-5 melanoma) | GI50 (OVCAR-4 ovarian) | GI50 (TK-10 renal) | GI50 (DU-145 prostate)
O=C(O)CNC(=O)c1ccccc1O | > 100 µM | > 100 µM | > 100 µM | > 100 µM | > 100 µM | > 100 µM | > 100 µM | > 100 µM | > 100 µM | > 100 µM |  |  |  |  |  |  |  |  |  | 
Cn1cc(C2=C(c3c4n(c5ccccc35)CC(CN)C4)C(=O)NC2=O)c2ccccc21 (stereo not given) | 6.76 µM | 6.63 µM | 25 µM | 4.85 µM | 11 µM | 25 µM | 6.89 µM | 10.6 µM | 8.07 µM | 9.53 µM | 3.3 µM | 3 µM | 4.82 µM | 1.4 µM | 3.4 µM | 10.1 µM | 3.53 µM | 2.33 µM | 2.94 µM | 4.02 µM
O=C(N/N=C/c1coc2ccc(Cl)cc2c1=O)c1ccncc1 | > 100 µM | > 100 µM | > 100 µM | > 100 µM | > 100 µM | > 100 µM | > 100 µM | > 100 µM | 52.5 µM | > 100 µM | 46.5 µM | 58.2 µM | 28.1 µM | 47.2 µM | 43.2 µM | 35.5 µM | 44.8 µM | > 100 µM | 17.2 µM | > 100 µM
CN(C)c1ccc(/C=C(\C#N)c2cc3ccccc3n2C)cc1 | > 100 µM | 1.29 µM | > 100 µM | > 100 µM | > 100 µM | > 100 µM | 12.1 µM | > 100 µM | > 100 µM | > 100 µM | 0.103 µM | 0.122 µM | 0.244 µM | 0.0379 µM | 0.482 µM | 0.0895 µM | 0.606 µM | 0.701 µM | > 100 µM | 0.505 µM
O=C(CCCCC(=O)N/N=C\c1ccccc1Cl)N/N=C\c1ccccc1Cl | > 100 µM | 41.1 µM | > 100 µM | > 100 µM | > 100 µM | > 100 µM | > 100 µM | > 100 µM | 25.8 µM | > 100 µM | 3.98 µM | 2.13 µM | > 100 µM | 1.62 µM | 7.44 µM | 1.2 µM | 3.94 µM | 7.55 µM | 4.68 µM | 8.33 µM
O=C(/C=C/c1ccccn1)c1ccccc1O | 3.87 µM | 3.08 µM | 5.43 µM | 10.4 µM | 9.36 µM | 9.07 µM | 14.1 µM | 8.84 µM | 4.95 µM | 5.69 µM | 1.82 µM | 1.56 µM | 1.71 µM | 2.47 µM | 2.8 µM | 2.87 µM | 3.95 µM | 2.98 µM | 2.28 µM | 2.31 µM
NC(=O)c1nnn(Cc2cc(Cl)c(C(=O)c3ccc(Cl)cc3)c(Cl)c2)c1N | > 9.09 µM and 36.4 µM | > 9.09 µM and 38.8 µM | > 100 µM | 32.9 µM | > 9.09 µM and 46.8 µM | > 66.4 µM | > 9.09 µM and 32.7 µM | > 9.09 µM and 39.1 µM | > 9.09 µM and 39 µM | > 53.5 µM | > 9.09 µM | > 9.09 µM | 7.76 µM |  | > 9.09 µM |  | > 9.09 µM | > 9.09 µM | > 9.09 µM | 
CCCn1cc(C2=C(c3cn(C)c4ccccc34)C(=O)NC2=O)c2ccccc21 | 5.94 µM | 4.58 µM | > 11.2 µM | > 16.2 µM | 6.47 µM | 24.5 µM | 4.36 µM | 14.2 µM | 22 µM | > 22.4 µM | 1.63 µM | 0.467 µM | 0.79 µM | 0.565 µM | 2.43 µM | 1.32 µM | 0.554 µM | 3.46 µM | 3.45 µM | 1.34 µM
C=CCCC(O)c1ccc(C(O)CCCCCCCCCCCC)o1 (stereo not given) | 32.8 µM | 44.4 µM | > 100 µM | > 100 µM | 34.2 µM | 45.8 µM | 35.7 µM | 92.9 µM | 30.2 µM | 46.9 µM | 17.3 µM | 17.3 µM | 18.4 µM | 82.2 µM | 18.3 µM | 20.9 µM | 20.1 µM | 30.9 µM | 16.4 µM | 22.6 µM
O=C(Nc1ncc(Cc2ccccc2)s1)c1ccc2c(c1)OCCO2 | 12.3 µM |  | > 100 µM | > 100 µM | > 100 µM | > 100 µM | 0.454 µM | > 100 µM |  | > 100 µM | 0.0465 µM | 0.0251 µM | 0.0484 µM | 0.0546 µM | 0.0748 µM | 0.0395 µM | 0.0428 µM | 0.561 µM | 0.154 µM | 0.0395 µM
O=C(O)c1cc(N/C=C2\C(=O)c3ccccc3OC2O)ccc1O (stereo not given) | 62.8 µg/mL | 72.7 µg/mL | 44.2 µg/mL | 115 µg/mL | 97.3 µg/mL | 82.8 µg/mL | 39.3 µg/mL | > 150 µg/mL | 118 µg/mL | 59 µg/mL | 15.6 µg/mL | 34.3 µg/mL | 9.75 µg/mL | 24.1 µg/mL | 25.5 µg/mL | 21.1 µg/mL | 18 µg/mL | 29 µg/mL | 39.2 µg/mL | 18.9 µg/mL
O=C(CSc1nc2ccc([N+](=O)[O-])cc2[nH]1)Nc1cccc(Cl)c1 | 10.3 µM | 8.9 µM | > 100 µM | 10.5 µM | 10.8 µM | 9.13 µM | 2.6 µM | 22.3 µM | 11.8 µM | 18.4 µM | 1.59 µM | 1.87 µM | 3.1 µM | 2.41 µM | 2.46 µM | 2.41 µM | 1.2 µM | 2.13 µM | 3.31 µM | 3.68 µM
O=C(/C=C/C=C/c1ccccc1)c1ccc(Nc2nc(Nc3ccccc3)nc(Nc3ccccc3)n2)cc1 | > 100 µM | > 100 µM | > 100 µM | > 100 µM | > 100 µM | > 100 µM | > 100 µM | > 100 µM | > 100 µM | > 100 µM | > 100 µM | > 100 µM | 19.4 µM | 17.7 µM | > 100 µM | > 100 µM | 13 µM | 88.1 µM | > 100 µM | 43.6 µM
